Results: patent US7915297B2, “Isoxazole derivatives and use thereof” (SK Holdings Co., Ltd., priority 2005, dated 2011)

Test system: Wnt/β-catenin signaling (β-catenin activity) in SW480 cell line
Test: Cell-based Wnt agonist screening, TCF luciferase reporter, SW480 (TCF-FL)
Parameters: species or system human
Details: Homo sapiens, % of LiCl (20 mM), 24 h, Con. 1 μM, read-out: Max. Activity (%)
Source text: In order to measure the in vitro activity of compounds of the present invention, two human cancer cell lines, HEK293 and SW480, which have intact Wnt signaling and show APC gene mutation in the Wnt signaling pathway, respectively, were used.
For evaluating the activity of wnt/β-catenin signaling in the cancer cell lines, gene as illustrated in FIG. 1 having β-catenin-binding sites of the Tcf/Lef transcriptional control protein (5 sites of TCF, 5X TCF) and having a fire fly luficerase as a marker protein ascertainable the activity of 5X TCF was introduced into the cells. Treatment with G418 led monoclones of the cell lines, in which the genes were permanently expressed, so as to construct a cell-based Wnt agonist screening system. […] For comparison with the activity of the isoxazole derivatives as Wnt agonists, lithium chloride (LiCl), acting as a positive control for the cell-based Wnt agonist screening system, was used to determine the expression level of the luciferase, and the results are shown in FIG. 3.
The cell lines, in which a cell-based Wnt agonist screening system was constructed, were cultured in RPMI 1640 media supplemented with penicillin-streptomycin (100 Units/mL) and heat-inactivated 5% fetal bovine serum under standard culture conditions (5% CO2, 37° C., 100% relative humidity). […] The suspension was diluted with the same medium to adjust the cell count to 8,000˜15,000 cells per well and was moved then in a 96-well microtiter plate. After being incubated for 24 hrs, the cells were treated with various concentrations of the isoxazole derivatives synthesized in Preparation Examples. Incubation for an additional 24 hours was followed by the quantitative analysis of luciferase activity using a Luciferase Assay kit (Promega, U.S.A.) according to the protocol described in the manual provided by the manufacturer. Data on the activities of the isoxazole derivatives thus synthesized are given in Tables 34 to 43, and are expressed as percentages relative to the activity of the positive control LiCl (20 mM), a well-known agonist of Wnt signaling.

| SMILES | Emax at 1 µM [%] |
| --- | --- |
| O=C(NCCn1nccn1)c1cc(-c2cccs2)on1 [Derivative (136), 5-thiophen-2-yl-isoxazole-3-carboxylic acid (2-[1,2,3]triazol-2-yl-ethyl)-amide] | 837 |
| O=C(NCCNc1ccccc1)c1cc(-c2ccco2)on1 [Derivative (195), 5-furan-2-yl-isoxazole-3-carboxylic acid (2-phenylamino-ethyl)-amide] | 84 |

Same assay, conditions: Homo sapiens, % of LiCl (20 mM), 24 h, Con. 10 μM, read-out: Max. Activity (%)

| SMILES | Emax at 10 µM [%] |
| --- | --- |
| O=C(NCCn1cncn1)c1cc(-c2ccco2)on1 [Derivative (38), 5-furan-2-yl-isoxazole-3-carboxylic acid (2-[1,2,4]triazol-1-yl-ethyl)-amide] | 551 |
| O=C(NCCCn1cncn1)c1cc(-c2ccoc2)on1 [Derivative (153), 5-furan-3-yl-isoxazole-3-carboxylic acid (3-[1,2,4]-triazol-1-yl-propyl)-amide] | 304 |

Same assay, conditions: Homo sapiens, % of LiCl (20 mM), 24 h, Con. 30 μM, read-out: Max. Activity (%)

| SMILES | Emax at 30 µM [%] |
| --- | --- |
| O=C(NCCn1nccn1)c1cc(-c2ccco2)on1 [Derivative (40), 5-furan-2-yl-isoxazole-3-carboxylic acid (2-[1,2,3]triazol-2-yl-ethyl)-amide] | 896 |
| O=C(NCCn1ccnn1)c1cc(-c2ccco2)on1 [Derivative (41), 5-furan-2-yl-isoxazole-3-carboxylic acid (2-[1,2,3]triazol-1-yl-ethyl)-amide] | 676 |
| O=C(NCCc1cccnc1)c1cc(-c2ccccc2)on1 [Derivative (71), 5-phenyl-isoxazole-3-carboxylic acid (2-pyridin-3-yl-ethyl)-amide] | 919 |
| O=C(NCCc1ccc(O)cc1)c1cc(-c2ccccc2)on1 [Derivative (73), 5-phenyl-isoxazole-3-carboxylic acid [2-(4-hydroxy-phenyl)-ethyl]-amide] | 853 |
| O=C(NCCc1cccnc1)c1cc(-c2cccs2)on1 [Derivative (139), 5-thiophen-2-yl-isoxazole-3-carboxylic acid (2-pyridin-3-yl-ethyl)-amide] | 922 |
| CN1CCN(CCNC(=O)c2cc(-c3ccco3)on2)CC1 [Derivative (177), 5-furan-2-yl-isoxazole-3-carboxylic acid [2-(4-methyl-piperazin-1-yl)-ethyl]-amide] | 582 |
| O=C(CCNC(=O)c1cc(-c2cccs2)on1)Nc1ccccc1 [Derivative (209), 5-thiophen-2-yl-isoxazole-3-carboxylic acid (2-phenylcarbamoyl-ethyl)-amide] | 246 |

Same assay, conditions: Homo sapiens, % of LiCl (20 mM), 24 h, Con. 120 μM, read-out: Max. Activity (%)

| SMILES | Emax at 120 µM [%] |
| --- | --- |
| CN(CCc1ccccn1)C(=O)c1cc(-c2ccco2)on1 [Derivative (61), 5-furan-2-yl-isoxazole-3-carboxylic acid methyl-(2-pyridin-2-yl-ethyl)-amide] | 56 |
| Nc1ccc(-c2cc(C(=O)NCCCn3ccnc3)no2)cc1 [Derivative (120), 5-(4-amino-phenyl)-isoxazole-3-carboxylic acid (3-imidazol-1-yl-propyl)-amide] | 246 |
| O=C(NCCn1cncn1)c1cc(-c2cccs2)on1 [Derivative (135), 5-thiophen-2-yl-isoxazole-3-carboxylic acid (2-[1,2,4]triazol-1-yl-ethyl)-amide] | 945 |
| O=C(NCCCn1ccnc1)c1cc(-c2ccc(Br)s2)on1 [Derivative (143), 5-(5-bromo-thiophen-2-yl)-isoxazole-3-carboxylic acid (3-imidazol-1-yl-propyl)-amide] | 93 |
| O=C(NCCCn1ccnc1)c1cc(-c2ccoc2)on1 [Derivative (152), 5-furan-3-yl-isoxazole-3-carboxylic acid (3-imidazol-1-yl-propyl)-amide] | 374 |
| O=C(NCCn1cncn1)c1cc(-c2ccsc2)on1 [Derivative (158), 5-thiophen-3-yl-isoxazole-3-carboxylic acid (2-[1,2,4]-triazol-1-yl-ethyl)-amide] | 414 |
| O=C(NCCN1CCCCC1)c1cc(-c2ccco2)on1 [Derivative (174), 5-furan-2-yl-isoxazole-3-carboxylic acid (2-piperidin-1-yl-ethyl)-amide] | 79 |
